For the assay, the target named is T1, Tyrosine-protein phosphatase non-receptor type 1 (Homo sapiens, UniProt P18031).
T1 sequence (P18031 whole entry): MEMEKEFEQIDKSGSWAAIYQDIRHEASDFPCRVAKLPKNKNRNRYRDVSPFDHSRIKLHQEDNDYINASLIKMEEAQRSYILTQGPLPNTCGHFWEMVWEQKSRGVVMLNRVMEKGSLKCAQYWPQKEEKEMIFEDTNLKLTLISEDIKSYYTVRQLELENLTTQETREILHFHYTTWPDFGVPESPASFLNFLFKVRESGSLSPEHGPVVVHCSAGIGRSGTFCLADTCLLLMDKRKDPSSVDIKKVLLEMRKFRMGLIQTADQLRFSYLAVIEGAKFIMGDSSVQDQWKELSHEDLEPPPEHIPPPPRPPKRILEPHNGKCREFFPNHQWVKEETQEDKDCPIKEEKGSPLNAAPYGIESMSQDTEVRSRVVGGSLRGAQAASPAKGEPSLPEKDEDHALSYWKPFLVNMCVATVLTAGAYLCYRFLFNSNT
As to the kind of experiment: Inhibition of human PTP1B.

Consider `COC(=O)/C1=C/c2c([nH]c3ccccc23)/C(C(=O)OC)=C\c2c1[nH]c1ccccc21` [CAULERPIN], for which the IC50 (commonly the concentration that gives 50% inhibition) was found to be 3.77 µM.

These data come from ChEMBL document CHEMBL1147719, “Two novel aromatic valerenane-type sesquiterpenes from the Chinese green alga Caulerpa taxifolia” (Bioorg Med Chem Lett, 2006).
